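Interpolation was linear, between the two tested concentrations surrounding the appropriate level; five concentrations were tested over 48 hours in 96-well plates. Abbreviation: GI50, concentration required for 50% inhibition of growth.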 Active and inactive are the calls of the source. Cut-off read from the data, not from the text of the source: active = GI50 up to about 1.1 µM and inactive = higher.
Tests used:
Assay in all cases: NCI tumour cell line growth inhibition, 48 h
T47D = test system: T47D
SF-295 = test system: SF-295
HOP-18 = test system: HOP-18
HCT-15 = test system: HCT-15
SR = test system: SR
NCI-H226 = test system: NCI-H226
KM12 = test system: KM12
OVCAR-5 = test system: OVCAR-5
SNB-78 = test system: SNB-78
SW-620 = test system: SW-620
UACC-257 = test system: UACC-257
SF-268 = test system: SF-268
HCT-116 = test system: HCT-116
HOP-62 = test system: HOP-62
Hs-578T = test system: Hs-578T
MDA-N = test system: MDA-N
NCI/ADR-RES = test system: NCI/ADR-RES
NCI-H23 = test system: NCI-H23
DLD-1 = test system: DLD-1
CAKI-1 = test system: CAKI-1
OVCAR-3 = test system: OVCAR-3
KM-20L2 = test system: KM-20L2
786-0 = test system: 786-0
HT-29 = test system: HT-29
PC-3 = test system: PC-3
DU-145 = test system: DU-145
DMS-114 = test system: DMS-114
BT-549 = test system: BT-549
NCI-H460 = test system: NCI-H460
HOP-92 = test system: HOP-92
IGROV-1 = test system: IGROV-1
SN12C = test system: SN12C
A549 = test system: A549
MDA-MB-435 = test system: MDA-MB-435
HCC 2998 = test system: HCC 2998
OVCAR-4 = test system: OVCAR-4
XF498 = test system: XF498
RPMI-8226 = test system: RPMI-8226
DMS-273 = test system: DMS-273
HL-60 = test system: HL-60
SK-MEL-5 = test system: SK-MEL-5
MOLT-4 = test system: MOLT-4
NCI-H522 = test system: NCI-H522
SK-MEL-2 = test system: SK-MEL-2
A498 = test system: A498
RXF 393 = test system: RXF 393
OVCAR-8 = test system: OVCAR-8
U-251 = test system: U-251
SK-MEL-28 = test system: SK-MEL-28
M14 = test system: M14
TK-10 = test system: TK-10
SF-539 = test system: SF-539
K562 = test system: K562
COLO 205 = test system: COLO 205
EKVX = test system: EKVX
LOX IMVI = test system: LOX IMVI
SNB-19 = test system: SNB-19
UO-31 = test system: UO-31
CCRF-CEM = test system: CCRF-CEM
SK-OV-3 = test system: SK-OV-3
LXFL 529 = test system: LXFL 529
ACHN = test system: ACHN
M19-MEL = test system: M19-MEL
Malme-3M = test system: Malme-3M
SNB-75 = test system: SNB-75
UACC-62 = test system: UACC-62

Measured: GI50

CNCCNc1ccc2c3c(nn2CCNCCO)-c2c(O)ccc(O)c2C(=O)c13
inactive: UACC-257 1.81 µM | NCI/ADR-RES 20.8 µM | DLD-1 1.26 µM
active: T47D 0.635 µM | SF-295 0.0681 µM | HOP-18 0.508 µM | SR 0.0519 µM | NCI-H226 0.0227 µM | KM12 0.211 µM | OVCAR-5 0.468 µM | SNB-78 0.526 µM | SW-620 0.273 µM | SF-268 0.0601 µM | HCT-116 0.346 µM | HOP-62 0.0179 µM | Hs-578T 0.166 µM | MDA-N 0.966 µM | NCI-H23 0.111 µM | CAKI-1 0.101 µM | OVCAR-3 1.03 µM | KM-20L2 0.55 µM | 786-0 0.08 µM | HT-29 0.378 µM | PC-3 0.535 µM | DU-145 0.0713 µM | DMS-114 0.0575 µM | BT-549 0.109 µM | NCI-H460 0.0139 µM | HOP-92 0.173 µM | IGROV-1 0.454 µM | SN12C 0.0397 µM | A549 0.0597 µM | MDA-MB-435 0.923 µM | HCC 2998 0.2 µM
1.72 µM: HCT-15

CC(=O)Oc1cc(Cl)c(OC(C)=O)c2c(OC(C)=O)c(C)c(O[Si](C)(C)C(C)(C)C)cc12
inactive: OVCAR-4 13.2 µM | XF498 17.5 µM | SF-295 11 µM | RPMI-8226 2.93 µM | DMS-273 5.47 µM | HL-60 2.84 µM | SK-MEL-5 4.41 µM | SR 3.62 µM | MOLT-4 3.31 µM | KM12 12.8 µM | SNB-78 3.12 µM | SW-620 2.8 µM | UACC-257 3.23 µM | NCI-H522 5.07 µM | SK-MEL-2 17.9 µM | SF-268 11.5 µM | HCT-116 3.35 µM | A498 2.09 µM | RXF 393 3.28 µM | HOP-62 19.1 µM | OVCAR-8 2.52 µM | NCI-H23 4.18 µM | DLD-1 1.85 µM | U-251 2.32 µM | CAKI-1 16 µM | OVCAR-3 15.6 µM | SK-MEL-28 3.05 µM | KM-20L2 17.4 µM | M14 5.7 µM | 786-0 14.9 µM | TK-10 5.31 µM | SF-539 14.5 µM | K562 3.22 µM | DMS-114 3 µM | NCI-H460 3.79 µM | COLO 205 15.1 µM | EKVX 18.7 µM | LOX IMVI 4.01 µM | HOP-92 7.52 µM | IGROV-1 3.64 µM | SNB-19 12.8 µM | SN12C 11.1 µM | UO-31 13.5 µM | A549 5.3 µM | CCRF-CEM 2.54 µM | HCC 2998 4.46 µM
4.76 µM: HCT-15

O=c1c2cccnc2ncn1CCN1CCCCC1
inactive: OVCAR-4 > 100 µM | SK-OV-3 > 100 µM | XF498 > 100 µM | SF-295 > 100 µM | DMS-273 > 100 µM | SK-MEL-5 > 100 µM | SR > 100 µM | MOLT-4 > 100 µM | NCI-H226 > 100 µM | KM12 > 100 µM | OVCAR-5 > 100 µM | SNB-78 > 100 µM | LXFL 529 > 100 µM | SW-620 > 100 µM | ACHN > 100 µM | NCI-H522 > 100 µM | SK-MEL-2 > 100 µM | SF-268 > 100 µM | HCT-116 > 100 µM | RXF 393 > 100 µM | HOP-62 > 100 µM | OVCAR-8 > 100 µM | M19-MEL > 100 µM | NCI-H23 > 100 µM | Malme-3M > 100 µM | DLD-1 > 100 µM | U-251 > 100 µM | CAKI-1 > 100 µM | OVCAR-3 > 100 µM | SNB-75 > 100 µM | SK-MEL-28 > 100 µM | KM-20L2 > 100 µM | M14 > 100 µM | 786-0 > 100 µM | TK-10 > 100 µM | HT-29 > 100 µM | SF-539 > 100 µM | K562 > 100 µM | DMS-114 > 100 µM | NCI-H460 > 100 µM | COLO 205 > 100 µM | EKVX > 100 µM | LOX IMVI > 100 µM | HOP-92 > 100 µM | IGROV-1 > 100 µM | SNB-19 > 100 µM | UACC-62 > 100 µM | SN12C > 100 µM | UO-31 > 100 µM | A549 > 100 µM | CCRF-CEM > 100 µM | HCC 2998 > 100 µM

From ChEMBL document CHEMBL1201862, “PubChem BioAssay data set” (2004)
